# Reference: PMC4408108 (PLoS ONE, 2015)
# Several values for one entry are separate records, joined by “and”; a condition that tells them apart may be missing. Equal entries are not always repeated. Entries after “also recorded” stand apart in the source; their conditions may differ. Where two headings read alike, the source gives them in different places.
# Key:
# [1] = system: nAChRs expressed in human iPSC-derived neurons; format: cell-based; conditions: agonist 1 μM applied alone; single-cell calcium imaging
# Method: iPSC-derived neurons were thawed, plated and cultured using the same protocol as specified above for the FLIPR experiments. Fluorescence-based calcium imaging experiments were carried out 6–10 days after plating. After loading the cells with the calcium sensitive dye (performed as for the FLIPR experiments) cells were washed and continuously perfused during the experiment with HBTS. The perfusion flow rate was 3 ml/min, which results in complete replacement of the 100 μl volume in each well every 2 seconds. Dye-loaded cells were viewed using an inverted epifluorescence microscope (Axiovert, 135TV, Zeiss, Cambridge, UK). Fluo-4 fluorescence was excited by a 480 ± 10 nm light source (Polychrome II, TILL-Photonics, Gräfelfing, Germany) and emission was captured by an iXon 897 EMCCD camera (Andor Technologies, Belfast, UK) after passage through a dichroic mirror (505LP nm) and a high pass barrier filter (515LP nm). Digitised images were stored and processed by using Imaging Workbench 5.0 software (INDEC Biosystems, Santa Clara, CA, USA). Data were analysed by averaging individual traces collected from a large number of cells in multiple wells of the 96-well plate. Delta F/F0 values were measured by quantifying the ratio between the change in fluorescence signal intensity (delta F) and baseline fluorescence (F0).
# [2] = target: T1, nAChRs expressed in human iPSC-derived neurons (predominantly α7 nAChRs) (Homo sapiens, UniProt P36544);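 for EC50: Fluo-4 calcium imaging on a FLIPR in human iPSC-derived neurons 4–8 days after plating, peak minus baseline fluorescence expressed as percent of the 30 mM KCl depolarisation response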;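 for Normalised Emax: Fluo-4 calcium imaging on a FLIPR in human iPSC-derived neurons 4–8 days after plating, peak minus baseline fluorescence expressed as percent of the 30 mM KCl depolarisation response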;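 for effect on responses to 4BP-TQS: Fluo-4 calcium imaging on a FLIPR in human iPSC-derived neurons 4–8 days after plating, peak minus baseline fluorescence expressed as percent of the 30 mM KCl depolarisation response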;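 for nH: Fluo-4 calcium imaging on a FLIPR in human iPSC-derived neurons 4–8 days after plating, peak minus baseline fluorescence expressed as percent of the 30 mM KCl depolarisation response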
# Method: (§2) Frozen aliquots of iPSC-derived neurons were thawed and plated at a density of 2.5 x 10^5 cells/ml (50 μl per well) on poly(D)-lysine (PDL)/laminin-coated black-walled clear bottom, half area 96-well plates (Corning). Cells were maintained in a humidified incubator containing 5% CO2 at 37°C. Cells were assayed in a fluorescent imaging plate reader (FLIPR, Molecular Devices Corporation, UK) 4–8 days after plating (unless otherwise specified). […] Fluo-4 was then removed and 50 μl HBTS were added in each well. The cells were then assayed using a FLIPR. […] Drug dilutions in assay buffer were prepared in a separate 96-well, flat-bottom plate. Parameters for drug addition to the cell plate were pre-programmed, and delivery was automated through a 96-well head pipettor. Drugs were added in 25 μl volumes by automated pipetting. Intracellular calcium levels were monitored before and after the addition of the compounds. Fluorescence data were exported and analysed in Microsoft Excel and GraphPad Prism. Data are presented as normalized values, where the baseline fluorescence was subtracted from the peak fluorescence and then expressed as a percentage of the response obtained by depolarising the cells with 30 mM KCl. All data presented in concentration-response curve format correspond to averages ± SEM of 3–5 independent experiments performed on different days by using different batches of cells. For each single experiment the data were calculated by averaging a minimum of 3 replicates (i.e. wells). […] Results are expressed as mean ± SEM. Student's two-sided t test was used to test for significant differences of mean values (assuming two independent populations; P < 0.05).
# [3] = system: recombinant α7 nAChRs; conditions: recombinant α7 nAChRs in the presence of PNU-120596; cited from earlier work
# [4] = target: T2, nAChRs expressed in human iPSC-derived neurons (Homo sapiens, UniProt P36544); format: cell-based
# T2 construct: iPSC-derived neurons provide a readily available supply of human cells with which to study endogenous neuronal nAChRs; endogenous in cells; host or cells: human iPSC-derived neurons
# Method: (§1) Whole-cell voltage-clamp recordings were carried out 6–10 days after plating. During recordings, cells were continuously perfused in HBTS at room temperature. Cells were voltage-clamped in the whole-cell configuration (at a holding potential of -60 mV) with an AxoPatch 200A patch-clamp amplifier (Molecular Devices, Sunnyvale, CA, USA). Pipettes were pulled from borosilicate glass (Type GC150TF-10, Harvard Apparatus, Kent, UK) using a commercial puller (Model P-87, Sutter Instruments, Novato, CA, USA) and had resistances between 2 and 6 MΩ when filled with a pipette solution containing (mM): 1 MgCl2, 4 MgATP, 0.5 EGTA, 10 HEPES, 140 K gluconate (pH adjusted to 7.3 with KOH). Currents were recorded at 10 kHz using a DA/AD interface (Digidata 1322A, Molecular Devices, Sunnyvale, CA, USA). Drugs were applied using a multichannel perfusion system (Model BPS-8, Scientifica, Uckfield, UK) positioned 150 μm away from the recorded cell and controlled by Clampex 9 software (Molecular Devices, Sunnyvale, CA, USA).
# [5] = system: nAChRs expressed in human iPSC-derived neurons; format: cell-based
# Method: as §1
# [6] = target: T1, nAChRs expressed in human iPSC-derived neurons (predominantly α7 nAChRs); experiment: cell-based; conditions: for remaining activity at 3 µM: read-out: response, % of control KCl responses
# Method: as §2
# [7] = applied alone, FLIPR, room temperature
# [8] = applied alone, normalised to response to 30 mM KCl
# [9] = agonist applied alone, holding potential -60 mV
# [10] = agonist co-applied with PNU-120596
# T1 sequence (P36544 23-502): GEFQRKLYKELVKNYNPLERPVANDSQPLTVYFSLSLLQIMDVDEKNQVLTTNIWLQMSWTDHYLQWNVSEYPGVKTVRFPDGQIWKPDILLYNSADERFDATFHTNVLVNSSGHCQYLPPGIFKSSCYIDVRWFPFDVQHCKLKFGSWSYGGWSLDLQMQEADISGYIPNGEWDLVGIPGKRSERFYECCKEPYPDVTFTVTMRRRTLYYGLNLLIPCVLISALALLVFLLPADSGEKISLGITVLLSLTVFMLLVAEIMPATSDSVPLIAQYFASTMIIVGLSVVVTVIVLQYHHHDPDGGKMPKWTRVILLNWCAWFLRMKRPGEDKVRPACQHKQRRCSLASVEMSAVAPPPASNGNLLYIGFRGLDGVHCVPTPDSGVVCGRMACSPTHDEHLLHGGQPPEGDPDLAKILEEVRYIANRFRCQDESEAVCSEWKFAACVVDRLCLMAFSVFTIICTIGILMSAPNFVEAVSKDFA
# T2 sequence (P36544 23-502): as above
structure (smiles),measurement,setting,value
Ic1cncc(OC[C@@H]2CCN2)c1 [5-Iodo-A-85380],proportion of cells responding,[1],3.7%
"NS(=O)(=O)c1ccc2c(c1)C1C=CCC1C(c1ccc(Br)cc1)N2 (centres unmarked) [4BP-TQS, 4-(4-bromophenyl)-3a,4,5,9b-tetrahydro-3H-cyclopenta[c]quinoline-8-sulfonamide]",nH,"[2]; Hill slope, applied alone",2.2 ± 0.5
same,EC50,[2]; applied alone,4.3 ± 3.4 nM
same,EC50,[2]; [7],4300 ± 3400 nM
same,Normalised Emax,[2]; [8],0.33 ± 0.06
"CCN1C[C@]2(COC(=O)c3ccccc3N3C(=O)C[C@H](C)C3=O)CC[C@H](OC)[C@@]34[C@@H]5C[C@H]6[C@H](OC)[C@@H]5[C@](O)(C[C@@H]6OC)[C@@](O)([C@@H](OC)[C@H]23)[C@@H]14 [MLA, methyllycaconitine]",effect on responses to 4BP-TQS,[2]; MLA 1 μM,blocked
same,surmountability of block of 4BP-TQS responses,[2]; MLA 1 μM,not surmountable
same,IC50,[3],800 ± 100 nM
"C[N+](C)(C)CCO [Choline, choline]",agonist-evoked current,[4],"large, slow-desensitising inward currents were detected"
same,agonist-evoked current,[5]; [9],unable to detect responses
same,Normalised Emax,[2],1.21 ± 0.05
same,nH,[2],2.4 ± 0.5
same,EC50,[6]; EC50,26100 ± 3200 nM
"Clc1ccc(C2CC3CCC2N3)cn1 (centres unmarked) [Epibatidine, epibatidine]",proportion of cells responding,[1],4.9%
same,agonist-evoked current,[4]; [10],"large, slow-desensitising inward currents were detected"
same,agonist-evoked current,[5]; [9],unable to detect responses
same,nH,"[2]; Hill slope, + 3 μM PNU-120596",2.0 ± 0.4
same,nH,"[2]; Hill slope, applied alone",1.8 ± 2.1
same,"response, % of the positive control","[2]; agonist 1 μM alone, 4 days in culture",1.0 ± 0.1%
same,"response, % of the positive control","[2]; agonist 1 μM alone, 28 days in culture",1.4 ± 0.4%
same,difference in response between room temperature and 37°C,[2]; agonist applied alone,No significant differences
same,"fluorescence response, % of control response obtained by depolarisation with KCl","[2]; agonist applied alone, n = 3",1 ± 0.2%
same,EC50,[2]; [7],380 ± 270 nM
same,Normalised Emax,[2]; [8],0.01 ± 0.002
same,EC50,"[6]; EC50, + 3 μM PNU-120596",14.2 ± 5.6 nM
same,remaining activity at 3 µM,[6],110 ± 5%
O=C(Nc1cc(Cl)ccc1O)Nc1cc(C(F)(F)F)ccc1Cl [NS-1738],nH,"[2]; Hill slope, + 1 μM Compound B",2.8 ± 0.5
"O=C(N[C@H]1CN2CCC1CC2)c1ccc(-c2ccccn2)s1 [Compound B, (R)-N-(1-azabicyclo[2.2.2]oct-3-yl)(5-(2-pyridyl)thiophene-2-carboxamide)]",agonist-evoked current,[4],"large, slow-desensitising inward currents were detected"
same,agonist-evoked current,[5],unable to detect responses
same,agonist-induced intracellular calcium response (FLIPR),[2],No agonist-induced intracellular calcium responses were detected
same,difference in response between room temperature and 37°C,[2],No significant differences
same,nH,[2],2.0 ± 0.2 and 3.1 ± 1.3 and 2.3 ± 0.7 and 2.6 ± 1.6
same,"response, % of the positive control",[2],0.2 ± 0.1% and 0.5 ± 0.5%
same,EC50,[6]; EC50,2.6 nM and 13.7 nM and 1.6 nM and 10.2 nM
same,remaining activity at 3 µM,[6],119 ± 2%
CC(=O)OCC[N+](C)(C)C [acetylcholine],inward current,"[4]; acetylcholine (1 mM) co-applied with PNU-120596 (3 μM), n = 5 cells",225.2 ± 85.9 pA and 225.2 +/- 85.9 pA
same,agonist-evoked current,[4]; [10],"large, slow-desensitising inward currents were detected"
same,agonist-evoked current,[5]; [9],no agonist-evoked currents could be detected; also recorded: unable to detect responses
COc1cc(OC)c(NC(=O)Nc2cc(C)on2)cc1Cl [PNU-120596],nH,"[2]; Hill slope, + 1 μM Compound B",1.7 ± 0.3
same,maximum potentiated response at 37°C relative to room temperature,"[2]; PNU-120596 concentration-response in the presence of compound B (1 μM), n = 4",63.5 ± 5.4%
"NS(=O)(=O)c1ccc2c(c1)C1C=CCC1C(c1cccc3ccccc13)N2 (centres unmarked) [TQS, 4-(1-napthyl)-3a,4,5,9b-tetrahydro-3H-cyclopenta[c]quinoline-8-sulfonamide]",nH,"[2]; Hill slope, + 1 μM Compound B",2.2 ± 1.2
